According to US10858339B2, “Aryl cyclopropyl-amino-isoquinolinyl amide compounds” (priority 2017, dated 2020):

Assays:
[1] = test system: Porcine Trabecular Meshwork cells (PTM); assay: PTM-HTM assay, actin fiber length in PTM cells; assay type: cell-based; settings: Sus scrofa; Table 17; porcine trabecular meshwork cells; read-out: PTM
Procedure: Porcine Trabecular Meshwork cells (PTM) were isolated from freshly obtained enucleated porcine eyes. Immortalized Human Trabecular Meshwork cells (TM-1) were obtained through a kind gift from Donna Peters in the Department of Ophthalmology and Visual Sciences at the University of Wisconsin. Cells were plated onto fibronectin coated glass-bottom 96-well plates and allowed to attach overnight. Media was removed and replaced with test compound in media with 1% fetal bovine serum and incubated for various times. After incubation, cells were formaldehyde fixed, triton solubilized, and stained. PTM cells were stained with Alexa Fluor®488 phalloidin (F-actin) and Hoechst 33342 (nuclei). TM-1 cells were stained with anti-paxillin followed by Alexa Fluor®488 goat-anti-mouse IgG (focal adhesions) and Hoechst 33342 (nuclei). All staining reagents were obtained through Invitrogen. Images were collected on an INCell 2200 imager with a 20× objective. The actin fiber length and total area of focal adhesions were analyzed using custom algorithms developed in the INCell Developer Toolbox, v1.9.3. Data collected were converted to percent of control (untreated cells). Curves were fit to data in GraphPad Prizm using sigmoidal dose-response and constraining top and bottom to 100% and 0%, respectively.

ROCK2 = ROCK2 (Homo sapiens, UniProt O75116); assay: biochemical; settings: ROCK2, Table 17
Sequence of ROCK2 (O75116 whole entry, species assumed): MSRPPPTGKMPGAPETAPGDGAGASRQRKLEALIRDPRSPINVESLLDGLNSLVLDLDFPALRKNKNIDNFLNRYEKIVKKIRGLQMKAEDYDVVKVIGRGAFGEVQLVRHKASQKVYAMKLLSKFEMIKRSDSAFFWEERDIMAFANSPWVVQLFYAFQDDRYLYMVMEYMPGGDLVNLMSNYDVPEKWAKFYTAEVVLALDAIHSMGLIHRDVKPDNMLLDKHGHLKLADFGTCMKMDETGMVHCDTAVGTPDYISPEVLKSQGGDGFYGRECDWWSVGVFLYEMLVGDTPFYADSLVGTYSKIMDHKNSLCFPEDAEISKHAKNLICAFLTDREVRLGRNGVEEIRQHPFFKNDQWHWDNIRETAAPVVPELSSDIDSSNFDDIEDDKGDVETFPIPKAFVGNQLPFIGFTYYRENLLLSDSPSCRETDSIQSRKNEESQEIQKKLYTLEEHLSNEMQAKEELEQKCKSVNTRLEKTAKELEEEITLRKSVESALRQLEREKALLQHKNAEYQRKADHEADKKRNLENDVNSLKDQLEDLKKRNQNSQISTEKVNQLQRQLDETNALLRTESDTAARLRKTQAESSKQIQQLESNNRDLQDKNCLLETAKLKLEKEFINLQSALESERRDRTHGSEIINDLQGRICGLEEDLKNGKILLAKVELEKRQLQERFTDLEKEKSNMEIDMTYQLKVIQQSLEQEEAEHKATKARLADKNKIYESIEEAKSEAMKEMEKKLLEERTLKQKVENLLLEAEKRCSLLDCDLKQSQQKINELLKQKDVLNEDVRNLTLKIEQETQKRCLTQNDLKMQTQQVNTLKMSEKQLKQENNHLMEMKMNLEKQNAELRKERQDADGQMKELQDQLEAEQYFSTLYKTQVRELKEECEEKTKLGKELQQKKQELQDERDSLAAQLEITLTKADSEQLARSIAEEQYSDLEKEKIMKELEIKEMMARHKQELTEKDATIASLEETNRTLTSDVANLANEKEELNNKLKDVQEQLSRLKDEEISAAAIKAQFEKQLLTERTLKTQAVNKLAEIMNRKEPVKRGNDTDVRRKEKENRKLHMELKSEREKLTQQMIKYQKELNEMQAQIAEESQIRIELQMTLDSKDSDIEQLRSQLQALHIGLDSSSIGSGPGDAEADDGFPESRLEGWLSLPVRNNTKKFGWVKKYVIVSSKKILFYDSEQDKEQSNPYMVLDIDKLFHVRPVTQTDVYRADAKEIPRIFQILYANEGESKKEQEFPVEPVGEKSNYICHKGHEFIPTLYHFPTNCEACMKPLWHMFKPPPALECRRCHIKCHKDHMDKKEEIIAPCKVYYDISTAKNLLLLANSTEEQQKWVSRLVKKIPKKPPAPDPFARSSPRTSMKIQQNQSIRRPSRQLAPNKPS

IKKb = biological target: T1, IKKb (Homo sapiens, UniProt O14920); assay: IKKb kinase activity; assay type: biochemical; settings: Table 17
T1 sequence (O14920 1-756): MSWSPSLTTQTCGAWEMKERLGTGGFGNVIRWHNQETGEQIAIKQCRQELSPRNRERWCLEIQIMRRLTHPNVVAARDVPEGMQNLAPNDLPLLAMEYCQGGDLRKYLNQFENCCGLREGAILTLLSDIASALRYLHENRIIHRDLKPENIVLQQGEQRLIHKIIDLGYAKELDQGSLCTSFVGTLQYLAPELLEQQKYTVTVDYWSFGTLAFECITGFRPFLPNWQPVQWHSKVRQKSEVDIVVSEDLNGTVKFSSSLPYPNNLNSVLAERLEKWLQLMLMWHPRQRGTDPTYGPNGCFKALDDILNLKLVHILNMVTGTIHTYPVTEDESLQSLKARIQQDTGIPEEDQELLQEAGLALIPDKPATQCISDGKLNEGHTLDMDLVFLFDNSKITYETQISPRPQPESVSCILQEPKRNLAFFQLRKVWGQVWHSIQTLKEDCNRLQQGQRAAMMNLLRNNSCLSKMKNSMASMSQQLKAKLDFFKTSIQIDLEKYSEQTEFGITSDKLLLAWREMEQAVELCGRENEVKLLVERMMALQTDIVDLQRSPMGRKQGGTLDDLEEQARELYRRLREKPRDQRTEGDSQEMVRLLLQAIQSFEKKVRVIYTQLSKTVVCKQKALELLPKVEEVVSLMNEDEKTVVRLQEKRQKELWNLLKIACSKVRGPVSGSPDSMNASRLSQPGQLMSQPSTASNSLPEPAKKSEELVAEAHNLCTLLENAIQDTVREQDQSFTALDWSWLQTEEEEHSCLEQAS

ROCK1 = ROCK1 (Homo sapiens, UniProt Q13464); assay: ROCK kinase inhibition assay, ROCK1 enzyme; assay type: biochemical; settings: ROCK1, Table 17;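 also: kinase reaction with 0.5 µM final ATP, 75 min at room temperature, remaining ATP read by luminescence, percent of DMSO-only control minus background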
Sequence of ROCK1 (Q13464 whole entry, species assumed): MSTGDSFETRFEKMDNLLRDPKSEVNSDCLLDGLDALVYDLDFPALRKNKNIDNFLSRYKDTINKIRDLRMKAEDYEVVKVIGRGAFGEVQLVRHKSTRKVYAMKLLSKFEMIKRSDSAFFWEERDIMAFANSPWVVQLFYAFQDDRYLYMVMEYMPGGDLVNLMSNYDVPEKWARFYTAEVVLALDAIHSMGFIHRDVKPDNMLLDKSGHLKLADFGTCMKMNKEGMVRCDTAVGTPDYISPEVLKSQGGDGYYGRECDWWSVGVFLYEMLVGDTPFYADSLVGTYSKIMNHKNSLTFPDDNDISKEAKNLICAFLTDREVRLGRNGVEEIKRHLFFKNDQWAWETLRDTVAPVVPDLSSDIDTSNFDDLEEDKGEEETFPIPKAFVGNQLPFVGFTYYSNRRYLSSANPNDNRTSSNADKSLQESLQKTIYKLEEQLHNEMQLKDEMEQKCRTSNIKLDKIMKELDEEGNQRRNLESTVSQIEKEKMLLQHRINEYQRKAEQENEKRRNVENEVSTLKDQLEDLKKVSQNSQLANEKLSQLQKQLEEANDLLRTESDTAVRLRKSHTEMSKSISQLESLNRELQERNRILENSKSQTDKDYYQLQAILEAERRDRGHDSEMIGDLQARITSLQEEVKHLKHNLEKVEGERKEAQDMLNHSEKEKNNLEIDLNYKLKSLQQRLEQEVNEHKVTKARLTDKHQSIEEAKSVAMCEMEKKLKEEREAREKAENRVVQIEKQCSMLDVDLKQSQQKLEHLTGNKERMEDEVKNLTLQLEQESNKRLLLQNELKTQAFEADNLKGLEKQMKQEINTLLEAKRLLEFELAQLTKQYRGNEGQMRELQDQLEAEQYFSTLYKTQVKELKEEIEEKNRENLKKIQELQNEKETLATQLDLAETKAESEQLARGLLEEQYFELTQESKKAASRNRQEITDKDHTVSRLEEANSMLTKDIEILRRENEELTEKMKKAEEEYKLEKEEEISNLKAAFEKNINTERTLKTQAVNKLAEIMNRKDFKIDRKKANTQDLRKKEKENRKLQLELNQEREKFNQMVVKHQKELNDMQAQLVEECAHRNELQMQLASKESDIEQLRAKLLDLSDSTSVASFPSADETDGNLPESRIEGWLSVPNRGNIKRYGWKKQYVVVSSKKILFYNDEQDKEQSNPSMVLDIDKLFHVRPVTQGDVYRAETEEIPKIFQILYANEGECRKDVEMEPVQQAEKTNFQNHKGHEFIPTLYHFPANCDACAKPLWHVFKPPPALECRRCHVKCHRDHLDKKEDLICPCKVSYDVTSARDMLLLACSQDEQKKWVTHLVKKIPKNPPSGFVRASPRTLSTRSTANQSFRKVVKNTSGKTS

JAK3 = biological target: T2, JAK3 (Homo sapiens, UniProt P52333); assay: JAK kinase assay, JAK3 enzyme; assay type: biochemical; settings: Table 17; read-out: JAK3
T2 sequence (P52333 1-1124): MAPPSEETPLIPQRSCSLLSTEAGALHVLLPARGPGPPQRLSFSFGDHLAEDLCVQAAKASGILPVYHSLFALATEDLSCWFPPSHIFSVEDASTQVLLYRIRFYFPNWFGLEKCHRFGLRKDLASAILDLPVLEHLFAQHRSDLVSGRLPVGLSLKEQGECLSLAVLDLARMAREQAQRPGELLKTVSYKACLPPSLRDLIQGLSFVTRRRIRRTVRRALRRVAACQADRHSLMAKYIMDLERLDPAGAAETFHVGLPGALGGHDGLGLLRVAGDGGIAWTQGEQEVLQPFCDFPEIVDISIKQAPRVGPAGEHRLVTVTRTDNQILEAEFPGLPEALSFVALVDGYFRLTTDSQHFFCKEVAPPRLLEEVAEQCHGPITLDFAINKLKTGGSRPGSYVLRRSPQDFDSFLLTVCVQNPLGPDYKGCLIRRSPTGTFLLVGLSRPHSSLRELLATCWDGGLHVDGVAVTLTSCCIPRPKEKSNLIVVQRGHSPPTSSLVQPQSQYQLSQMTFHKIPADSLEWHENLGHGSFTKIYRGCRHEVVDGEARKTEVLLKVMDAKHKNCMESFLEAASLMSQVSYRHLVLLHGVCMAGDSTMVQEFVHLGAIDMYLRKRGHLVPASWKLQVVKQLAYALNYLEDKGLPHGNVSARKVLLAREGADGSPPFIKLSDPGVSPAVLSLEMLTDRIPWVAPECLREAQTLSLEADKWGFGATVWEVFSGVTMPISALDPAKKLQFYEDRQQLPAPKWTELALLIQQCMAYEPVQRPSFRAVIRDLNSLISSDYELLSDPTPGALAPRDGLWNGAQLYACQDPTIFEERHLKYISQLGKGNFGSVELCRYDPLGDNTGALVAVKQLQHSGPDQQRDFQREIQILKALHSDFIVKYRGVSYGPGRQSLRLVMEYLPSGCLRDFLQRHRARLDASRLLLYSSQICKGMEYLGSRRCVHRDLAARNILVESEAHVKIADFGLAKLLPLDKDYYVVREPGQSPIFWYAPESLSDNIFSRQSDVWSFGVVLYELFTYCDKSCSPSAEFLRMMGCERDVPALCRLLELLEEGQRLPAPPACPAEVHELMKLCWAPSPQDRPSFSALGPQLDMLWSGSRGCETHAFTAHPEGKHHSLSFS

[2] = Rabbit IOP after intracameral injection; assay type: in vivo; settings: intracameral injection of a formulation, FIG. 1
Source text: Examples of such assays are described in the following reference, incorporated herein by reference: C. Liljebris, G. Selen, B. Resul, J. Sternschantz, and U. Hacksell, “Derivatives of 17-phenyl-18,19,20-trinorprostaglandin F2α Isopropyl Ester: Potential Anti-glaucoma Agents”, Journal of Medicinal Chemistry 1995, 38 (2): 289-304.

Compound | IC50 [1] [µM] | Ki (ROCK2) [µM] | Ki (IKKb) [µM] | Ki (ROCK1) [µM] | Ki (JAK3) [µM] | changes (reductions) in rabbit IOP [2]
O=C(Nc1ccc2cnccc2c1F)[C@@H]1CC1c1ccc(S(=O)(=O)Nc2ccccn2)cc1 (mixture of isomers) [N-(5-fluoroisoquinolin-6-yl)-2-(4-(N-(pyridin-2-yl)sulfamoyl)phenyl)cyclopropane-1-carboxamide] | 0.29 | 0.0049 | 0.144 | 0.0103 | 0.13 | –
(1R,2R)—N-(fluoroisoquinolin-6-yl)-2-(4-(pyridinylmethyl)phenyl)cyclopropane-1-carboxamide | – | – | – | – | – | reductions
